The source of these data is PMC5031918 (Journal of Antimicrobial Chemotherapy, 2016).

One data set deals with CEM-WT cells. Nature of the data set: [3H]raltegravir cellular accumulation ratio. Particulars: 30 min; for Effect of efflux inhibitor on [3H]raltegravir CAR: MK571 100 μM, XR9051 10 μM or 1 μM (Figure 1a); for Effect of 100 μM cold drug (cis inhibitor) on [3H]raltegravir CAR / CAR of raltegravir: [3H]raltegravir 1 μM. It is filed as in vitro ADME, human.
In data set [1] the target is T1, MRP1 (ABCC1), CEM-MRP1 cells (Homo sapiens, UniProt P33527). Description: Calcein-AM fluorescence accumulation assay, flow cytometry, CEM-MRP1 cells. It is filed as cell-based. To be noted: antiviral drug at 100 μM, calcein-AM 0.25 μM.
Another data set has as its system CEM-WT (CEM-CCRF) cells. Nature of the data set: Calcein-AM fluorescence accumulation assay, flow cytometry, CEM-WT cells. It is filed as cell-based, human. To be noted: antiviral drug at 100 μM, calcein-AM 0.25 μM.
The target of data set [2] is T2, P-gp (ABCB1), CEM-P-gp cells (Homo sapiens, UniProt P08183). Description: [3H]ritonavir cellular accumulation ratio. In kind it is in vitro ADME. To be noted: reversan 10 μM, P = 0.0021.
Data set [3] concerns the target T1, MRP1 (ABCC1), CEM-MRP1 cells. Description: [3H]ritonavir cellular accumulation ratio. In kind it is in vitro ADME. Particulars: for Increase of the CAR of [3H]ritonavir by 100 μM cold drug: [3H]ritonavir 1 μM, 30 min.
The next data set deals with primary CD4+ T cells. Description: Calcein accumulation/efflux in primary CD4+ T cells, flow cytometry. It is filed as cell-based, human.
Data set [4] deals with T2, P-gp (ABCB1), CEM-P-gp cells. Description: [3H]raltegravir cellular accumulation ratio. In kind it is in vitro ADME. Particulars: 30 min.
Data set [5] concerns the target T1, MRP1 (ABCC1), CEM-MRP1 cells. Description: [3H]raltegravir cellular accumulation ratio. To be noted: 30 min; for Effect of 100 μM cold drug (cis inhibitor) on [3H]raltegravir CAR: [3H]raltegravir 1 μM.
For data set [6], the target named is P-gp, primary CD3+CD4+ T cells (Homo sapiens, UniProt P08183). In kind it is in vitro ADME. To be noted: XR9051 1 μM, P = 0.017.

“Also recorded” adds a separate entry of the source. Read-outs that look alike come from different tables or passages of the source.

T1 sequence (P33527 whole entry): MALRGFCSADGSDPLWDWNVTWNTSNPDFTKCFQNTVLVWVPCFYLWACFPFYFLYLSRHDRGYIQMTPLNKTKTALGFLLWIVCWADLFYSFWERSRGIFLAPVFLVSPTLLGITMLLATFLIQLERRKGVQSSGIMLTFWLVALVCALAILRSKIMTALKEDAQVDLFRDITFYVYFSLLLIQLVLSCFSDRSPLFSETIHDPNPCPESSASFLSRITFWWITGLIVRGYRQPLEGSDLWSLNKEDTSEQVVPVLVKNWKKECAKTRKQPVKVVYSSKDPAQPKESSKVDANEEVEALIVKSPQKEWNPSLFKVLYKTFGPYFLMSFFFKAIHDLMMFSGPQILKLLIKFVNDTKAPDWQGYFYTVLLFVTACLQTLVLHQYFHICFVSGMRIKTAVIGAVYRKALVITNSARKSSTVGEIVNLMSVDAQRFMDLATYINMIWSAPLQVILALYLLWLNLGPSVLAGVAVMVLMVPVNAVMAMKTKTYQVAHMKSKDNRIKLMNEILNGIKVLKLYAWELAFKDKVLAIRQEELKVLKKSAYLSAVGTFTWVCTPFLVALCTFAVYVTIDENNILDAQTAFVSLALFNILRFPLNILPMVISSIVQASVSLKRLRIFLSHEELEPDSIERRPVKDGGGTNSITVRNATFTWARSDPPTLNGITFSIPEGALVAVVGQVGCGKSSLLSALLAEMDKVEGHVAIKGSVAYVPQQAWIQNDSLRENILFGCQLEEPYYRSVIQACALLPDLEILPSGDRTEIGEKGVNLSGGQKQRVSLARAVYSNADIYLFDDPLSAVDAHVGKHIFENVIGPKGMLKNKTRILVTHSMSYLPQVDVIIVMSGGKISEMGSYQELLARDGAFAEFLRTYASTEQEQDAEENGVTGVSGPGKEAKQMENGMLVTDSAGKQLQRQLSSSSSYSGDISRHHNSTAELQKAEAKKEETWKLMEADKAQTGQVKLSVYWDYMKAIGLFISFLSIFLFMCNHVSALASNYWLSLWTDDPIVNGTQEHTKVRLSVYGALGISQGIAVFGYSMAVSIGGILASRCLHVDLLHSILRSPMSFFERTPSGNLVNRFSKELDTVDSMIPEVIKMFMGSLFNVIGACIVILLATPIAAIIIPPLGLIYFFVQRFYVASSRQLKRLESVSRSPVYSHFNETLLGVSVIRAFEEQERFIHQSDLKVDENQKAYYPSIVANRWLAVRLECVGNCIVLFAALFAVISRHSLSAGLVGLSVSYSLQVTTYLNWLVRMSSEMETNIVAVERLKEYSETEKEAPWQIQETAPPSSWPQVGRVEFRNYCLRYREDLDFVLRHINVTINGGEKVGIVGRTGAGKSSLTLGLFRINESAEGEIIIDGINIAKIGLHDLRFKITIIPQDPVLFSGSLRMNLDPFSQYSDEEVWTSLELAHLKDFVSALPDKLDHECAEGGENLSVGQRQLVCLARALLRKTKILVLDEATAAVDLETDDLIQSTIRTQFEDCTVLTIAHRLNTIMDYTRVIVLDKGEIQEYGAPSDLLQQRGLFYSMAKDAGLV
T2 sequence (P08183 whole entry): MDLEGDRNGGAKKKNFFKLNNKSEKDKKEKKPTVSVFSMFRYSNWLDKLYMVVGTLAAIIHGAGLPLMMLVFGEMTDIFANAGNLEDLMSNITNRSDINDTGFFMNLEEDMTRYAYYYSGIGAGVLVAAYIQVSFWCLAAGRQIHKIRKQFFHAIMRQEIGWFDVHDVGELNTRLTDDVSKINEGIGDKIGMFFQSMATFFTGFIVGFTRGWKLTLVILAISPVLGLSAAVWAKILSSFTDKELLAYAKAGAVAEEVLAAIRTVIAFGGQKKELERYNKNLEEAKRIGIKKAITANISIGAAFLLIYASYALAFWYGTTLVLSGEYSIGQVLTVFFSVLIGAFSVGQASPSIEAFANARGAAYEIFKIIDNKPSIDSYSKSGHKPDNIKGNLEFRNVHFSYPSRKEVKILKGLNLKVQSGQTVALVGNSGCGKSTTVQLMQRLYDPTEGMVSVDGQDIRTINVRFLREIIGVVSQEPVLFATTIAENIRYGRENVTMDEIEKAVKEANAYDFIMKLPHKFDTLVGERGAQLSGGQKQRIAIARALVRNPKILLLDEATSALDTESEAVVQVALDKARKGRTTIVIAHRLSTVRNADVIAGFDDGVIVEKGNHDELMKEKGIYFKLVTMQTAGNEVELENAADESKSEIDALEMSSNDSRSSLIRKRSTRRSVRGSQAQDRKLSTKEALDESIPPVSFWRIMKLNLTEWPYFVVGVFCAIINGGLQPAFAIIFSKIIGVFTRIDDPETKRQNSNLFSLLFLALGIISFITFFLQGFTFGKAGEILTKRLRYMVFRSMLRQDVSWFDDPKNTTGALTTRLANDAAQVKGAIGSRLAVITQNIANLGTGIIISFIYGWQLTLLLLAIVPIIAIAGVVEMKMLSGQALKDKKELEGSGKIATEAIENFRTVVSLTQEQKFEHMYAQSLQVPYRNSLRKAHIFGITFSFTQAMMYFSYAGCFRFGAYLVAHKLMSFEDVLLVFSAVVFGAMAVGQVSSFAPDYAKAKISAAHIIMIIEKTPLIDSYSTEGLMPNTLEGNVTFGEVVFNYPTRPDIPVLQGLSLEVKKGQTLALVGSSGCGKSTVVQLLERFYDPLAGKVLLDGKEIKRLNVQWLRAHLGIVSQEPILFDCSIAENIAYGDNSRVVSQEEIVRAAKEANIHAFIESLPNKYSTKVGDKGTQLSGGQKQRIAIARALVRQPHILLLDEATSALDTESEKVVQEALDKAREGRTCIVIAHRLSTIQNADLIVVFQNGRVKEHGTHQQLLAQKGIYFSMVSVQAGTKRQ
Sequence of P-gp, primary CD3+CD4+ T cells (P08183 whole entry): as above

Consider `CN(C)C(=O)CCSC(SCCC(=O)O)c1cccc(/C=C/c2ccc3ccc(Cl)cc3n2)c1` (stereo not shown) [MK571], for which the “Effect of efflux inhibitor on [3H]raltegravir CAR” value in the data set on CEM-WT cells is “did not affect”.

Turning to `Cc1cccc(C)c1OCC(=O)N[C@@H](Cc1ccccc1)[C@@H](O)C[C@H](Cc1ccccc1)NC(=O)[C@H](C(C)C)N1CCCNC1=O` [lopinavir], the “Fluorescence ratio (MFI treated/MFI mock cells), calcein” value was 4.20 in data set [1] and 0.60 with CEM-WT (CEM-CCRF) cells.

`Cc1ccnc2c1NC(=O)c1cccnc1N2C1CC1` [nevirapine]: the entries for the “Fluorescence ratio (MFI treated/MFI mock cells), calcein” value (in [1]; with CEM-WT (CEM-CCRF) cells) were 1.23 and 0.92, respectively.

On to `O=C(NCCCN1CCOCC1)c1cnn2c(-c3ccccc3)cc(-c3ccccc3)nc12` [reversan], for which the “Effect of reversan on reduced [3H]ritonavir accumulation” value in data set [2] was “reversed in part”; in data set [3] (reversan 10 μM, P = 0.037), “reversed in part”.

In the case of `CC(C)(C)NC(=O)[C@@H]1CN(Cc2cccnc2)CCN1C[C@@H](O)C[C@@H](Cc1ccccc1)C(=O)N[C@H]1c2ccccc2C[C@H]1O` [indinavir], the “Fluorescence ratio (MFI treated/MFI mock cells), calcein” value in data set [1] was 2.11; in the data set with CEM-WT (CEM-CCRF) cells, 1.28.

With `COc1ccc2c3c([nH]c2c1)[C@H](CC(C)C)N1C(=O)[C@H](CCC(=O)OC(C)(C)C)NC(=O)[C@@H]1C3` [Ko143], in the data set on primary CD4+ T cells (primary CD4+ T cells, low doses (<1 μM) of Ko143, data not shown), the “Inhibition of calcein accumulation” value was “null inhibition”.

As to `Cc1nnc(C(=O)NC(C)(C)c2nc(C(=O)NCc3ccc(F)cc3)c(O)c(=O)n2C)o1` [raltegravir], the CAR of raltegravir in data set [4] (CEM-P-gp, [3H]raltegravir 1 μM, co-incubation with XR9051 1 μM, P = 0.0025) was 2.46 ± 0.10; in the data set on CEM-WT cells (accumulation experiments (Figure 1b), normalized to 100%), 3.04 ± 0.62; in the data set on CEM-WT cells (time-course (Figure 1a)) it was 3.12 ± 0.12. In data set [4] (untreated CEM-P-gp), the “Reduction in intracellular raltegravir accumulation with respect to CEM-WT” value was 52%. For the same compound, in data set [4] (untreated cells, P < 0.0001), the “CAR raltegravir P-gp/CAR raltegravir WT” value worked out at 0.48. Also, the “Increase of the CAR of [3H]ritonavir by 100 μM cold drug” value in data set [3] is “did not inhibit”. Besides, the “Effect of 100 μM cold drug (cis inhibitor) on [3H]raltegravir CAR” value (with CEM-WT cells; in data set [5] (CEM-MRP1)) was “no changes” each time. In addition, the “Reduction in intracellular raltegravir accumulation with respect to control CEM-WT cells” value in data set [5] (untreated CEM-MRP1) was greater than 30%. Also, the “CAR raltegravir MRP1/CAR raltegravir WT” value in data set [5] (untreated cells, P < 0.0001) turned out to be 0.64.

For the compound `CC(C)(C)NC(=O)[C@@H]1C[C@@H]2CCCC[C@@H]2CN1C[C@@H](O)[C@H](Cc1ccccc1)NC(=O)[C@H](CC(N)=O)NC(=O)c1ccc2ccccc2n1` [saquinavir], the “Fluorescence ratio (MFI treated/MFI mock cells), calcein” value in [1] was 3.94; with CEM-WT (CEM-CCRF) cells, 0.77. Also, the “Effect of 100 μM cold drug (cis inhibitor) on [3H]raltegravir CAR” value is on record as “significantly competed with raltegravir efflux” in data set [4] (CEM-P-gp, [3H]raltegravir 1 μM); “did not affect” in the data set on CEM-WT cells; “did not affect” in data set [5] (CEM-MRP1).

As to `O=C1Nc2ccc(Cl)cc2[C@@](C#CC2CC2)(C(F)(F)F)O1` [efavirenz], the “Fluorescence ratio (MFI treated/MFI mock cells), calcein” value is recorded as 4.38 in data set [1] and 0.94 in the data set with CEM-WT (CEM-CCRF) cells.

On to `COC(=O)N[C@H](C(=O)N[C@@H](Cc1ccccc1)[C@@H](O)CN(Cc1ccc(-c2ccccn2)cc1)NC(=O)[C@@H](NC(=O)OC)C(C)(C)C)C(C)(C)C` [atazanavir], for which the “Fluorescence ratio (MFI treated/MFI mock cells), calcein” value in data set [1] is listed as 2.54; in the data set on CEM-WT (CEM-CCRF) cells, 0.63.

As to `CC(C)CN(C[C@@H](O)[C@H](Cc1ccccc1)NC(=O)O[C@H]1CCOC1)S(=O)(=O)c1ccc(N)cc1` [amprenavir], the “Fluorescence ratio (MFI treated/MFI mock cells), calcein” value in data set [1] is 3.49; in the data set with CEM-WT (CEM-CCRF) cells, 0.87.

XR9051: the “Effect of XR9051 on reduced [3H]raltegravir accumulation” value is recorded as “significantly reverse this effect” in data set [6] (CD3+CD4+P-gp^high cells) and “could also be reversed” in data set [6] (total unsorted PBMCs). The “Effect on activity of P-gp^high cells (calcein efflux)” value with primary CD4+ T cells (non-stimulated CD4+ cells, XR9051 1 μM during the 2 h efflux time) is “remarkably inhibited”. In addition, the “Effect of efflux inhibitor on [3H]raltegravir CAR” value in [4] (CEM-P-gp, XR9051 10 μM or 1 μM (Figure 1a)) is on record as “significantly increased accumulation”; in the data set on CEM-WT cells, “did not significantly alter; also recorded: did not affect”; in data set [5] (CEM-MRP1, MK571 100 μM, XR9051 10 μM), “neither MK571 nor XR9051 affected”.

For the compound `CC(C)c1nc(CN(C)C(=O)N[C@H](C(=O)N[C@@H](Cc2ccccc2)C[C@H](O)[C@H](Cc2ccccc2)NC(=O)OCc2cncs2)C(C)C)cs1` [ritonavir], the “Increase of the CAR of [3H]ritonavir by 100 μM cold drug” value in [3] came to 25%. Moreover, the “Effect of 100 μM cold drug (cis inhibitor) on [3H]raltegravir CAR” value (with CEM-WT cells; in [5] (CEM-MRP1)) was “did not affect” each time.
